86 molecules from a melting point compilation (Tetko et al.) can be followed below.

As to `O=[N+]([O-])c1ccc(S(=O)(=O)CCO)cc1`, the melting point lay within 128 to 130 °C.

In turn, `CCc1nnc(-c2cccc(N)c2)o1` returned a melting point of 88 to 90 °C.

In turn, `Cc1ccc(NS(=O)(=O)c2cc([N+](=O)[O-])ccc2NN)c(C)c1` registered a melting point of 165 to 167 °C.

For `O=C(O)Cc1ccc(NC(=O)c2ccc(Br)o2)cc1`, the melting point fell in the range of 199 to 201 °C.

`Cc1nc(Cl)c(NN)nc1C` registered a melting point of 134 to 136 °C.

In the case of `COc1ccc(NC(=O)C2(N)CCCC2)cc1OC`, the melting point lay in the range of 116 to 118 °C.

For the molecule `Cc1cccnc1C(=O)NN`, the melting point lay in the range of 76 to 78 °C.

With `Nc1ccc2oc(-c3ccccc3F)nc2c1`, the melting point was 166 to 168 °C.

Take `COc1cccc(NCCC(=O)O)c1`: the melting point fell in the range of 87 to 89 °C.

The molecule `Nc1cc(Cc2ccccc2)ccc1O` displayed a melting point of 136 to 138 °C.

In turn, `Brc1ncnc2ccccc12` gave a melting point of 94 to 96 °C.

`COc1ccc(S(=O)(=O)NC2CC2)cc1N` gave a melting point of 119 to 121 °C.

Turning to `CC(Cc1ccc(Cl)cc1)NC(=O)OC(C)(C)C` (stereo unspecified), the melting point was 93 to 95 °C.

In turn, `O=C(O)c1ccn(-c2ccccc2[N+](=O)[O-])n1` came in with a melting point of 223 to 225 °C.

For `Cc1ccc(C)c2c(C)c(C(=O)O)oc12`, the melting point lay in the range of 239 to 241 °C.

In turn, `O=C(O)C1=C(c2ccccc2)N2CCS(=O)(=O)N=C2S1` came in with a melting point of 244 to 246 °C.

Molecule `CN(Cc1ccccc1)C(N)=O` displayed a melting point of 134 to 136 °C.

`O=C(O)Cn1cncn1` came in with a melting point of 199 to 201 °C.

As to `Cc1ccc(C(=O)O)c(Br)c1`, the melting point lay in the range of 143 to 147 °C.

In turn, `CCN(CC)c1ccc(C(=O)O)cn1` returned a melting point of 154 to 156 °C.

The molecule `Cc1ccc2oc(S)nc2n1` displayed a melting point of 139 to 141 °C.

`CC(C)c1ccc(C(=O)CCl)cc1` yielded a melting point of 44 to 46 °C.

The molecule `CCOC(C)C(N)=S` (stereo unspecified) had a melting point of 54 to 56 °C.

Regarding `N#Cc1ccccc1Sc1ccccc1C(=O)O`, the melting point was in the range of 213 to 216 °C.

`O=C(O)CCS(=O)(=O)c1ccccc1Cl` had a melting point of 132 to 134 °C.

In turn, `CNc1snc(C)c1C(=O)O` yielded a melting point of 151 to 153 °C.

Molecule `c1ccc(COc2cccc3cn[nH]c23)cc1` displayed a melting point of 126 to 128 °C.

With `O=C(NCCCN1CCCC1=O)OCC(F)(F)F`, the melting point fell in the range of 35 to 37 °C.

In the case of `O=C(O)C1CCCN1C(=O)c1cncn1-c1ccccc1` (stereo unspecified), the melting point is 133 to 135 °C.

As for `Sc1nnc(C2CCCCC2)o1`, the melting point was in the range of 81 to 83 °C.

Regarding `CC(C)(C)OC(=O)NCc1cccc(C(N)=S)c1`, the melting point lay within 105 to 107 °C.

`O=C(O)c1ccc(-c2ccccc2OC(F)(F)F)cc1F`: the melting point fell in the range of 150 to 152 °C.

`CS(=O)(=O)C1CCCCC1=O` (stereo unspecified) yielded a melting point of 69 to 71 °C.

The molecule `CC(=O)c1ccc(-n2cncn2)cc1` yielded a melting point of 111 to 124 °C.

`O=C(O)c1cn(-c2ccccc2)nc1-c1ccncc1` yielded a melting point of 235 to 237 °C.

The molecule `OC(c1ccccc1)C1CCCCN1` (stereo unspecified) returned a melting point of 136 to 138 °C.

Regarding `Cc1c(C(=O)O)oc2c(Br)cccc12`, the melting point is 204 to 206 °C.

`O=C(O)c1ccccc1OCCOc1ccccc1` displayed a melting point of 84 to 86 °C.

`COC(=O)c1ccc(OCC#N)cc1` displayed a melting point of 95 to 97 °C.

`O=C(O)C1CCN(C(=O)N2CCCC2)CC1` gave a melting point of 144 to 146 °C.

On to `CS(=O)(=O)Nc1ccc(Cl)c(N)c1`, for which the melting point is 156 to 158 °C.

`O=C(O)CNS(=O)(=O)c1ccc(Cl)cc1` gave a melting point of 177 to 179 °C.

Regarding `O=C(O)c1ccc([N+](=O)[O-])c(Br)n1`, the melting point was in the range of 179 to 181 °C.

Molecule `CC(C)Sc1ccc(Cl)nn1` gave a melting point of 56 to 58 °C.

Take `CS(=O)(=O)Nc1ccc(O)cc1`: the melting point was 158 to 160 °C.

`COc1ccc(C(=O)Nc2ncc(C)s2)cc1N`: the melting point is 225 to 227 °C.

Molecule `CCOc1ccccc1C(N)=S` registered a melting point of 115 to 117 °C.

In the case of `Cc1ccc(SCCNC(=O)CCl)cc1`, the melting point fell in the range of 114 to 116 °C.

`O=C(Nc1ccccc1)C1CCN(C(=O)CCl)CC1` returned a melting point of 143 to 145 °C.

Take `O=Cc1ccc(OCc2ccncc2)cc1`: the melting point lay within 112 to 114 °C.

`Cc1cc(Cl)nc(-c2cccc([N+](=O)[O-])c2)n1` came in with a melting point of 147 to 149 °C.

In turn, `O=C1CCSc2ccccc2N1` gave a melting point of 208 to 210 °C.

`O=C(O)c1cn(-c2ccccc2Cl)nn1` showed a melting point of 133 to 135 °C.

As for `NCC(O)Cc1ccccc1` (stereo unspecified), the melting point lay within 67 to 69 °C.

Molecule `O=C(Nc1ccc(O)cc1)c1ccsc1` showed a melting point of 207 to 209 °C.

As for `O=S(=O)(Nc1nc2ccccc2nc1Cl)c1ccc(F)cc1`, the melting point lay in the range of 181 to 183 °C.

`O=C(O)C1CC(=O)N(c2ccc(Cl)c(F)c2)C1` (stereo unspecified) showed a melting point of 149 to 151 °C.

For the molecule `O=C(O)c1ccc(-c2ccc(OC(F)F)cc2)s1`, the melting point lay within 209 to 211 °C.

Regarding `Cc1ccc(S(=O)(=O)NCCC(=O)O)cc1C`, the melting point lay in the range of 126 to 128 °C.

`Oc1ccccc1Oc1ccccn1` displayed a melting point of 110 to 112 °C.

The molecule `O=C(O)c1cc(=O)n(-c2ccccc2)[nH]1` returned a melting point of 256 to 258 °C.

In turn, `CS(=O)(=O)c1cccc(NC(=O)CCl)c1` showed a melting point of 104 to 106 °C.

`CCOc1ccc(Nc2ncccc2C(=O)O)cc1` showed a melting point of 189 to 191 °C.

The molecule `CC(C)(C)OC(=O)N1CCC(OC(=O)c2ccccc2N)CC1` had a melting point of 120 to 122 °C.

Molecule `Cc1ncc(Cl)c(C(=O)O)n1` yielded a melting point of 130 to 132 °C.

On to `NCCNC(=O)c1ccccc1O`, for which the melting point lay within 38 to 40 °C.

The molecule `CCCS(=O)(=O)Nc1ccccc1C(=O)O` yielded a melting point of 150 to 152 °C.

Molecule `CC(C)(C)OC(=O)NC1CCN(CC(N)=S)CC1` showed a melting point of 169 to 171 °C.

On to `O=C(O)c1ccc(F)cc1S`, for which the melting point is 171 to 173 °C.

The molecule `CC(N)C(O)c1c(F)cccc1F` (stereo unspecified) showed a melting point of 119 to 121 °C.

Consider `CCc1ccc(C(=O)c2cccc(S(C)(=O)=O)c2)cc1`, for which the melting point lay in the range of 97 to 99 °C.

`Oc1cc(Br)ccc1C(F)(F)F` gave a melting point of 89 to 91 °C.

On to `NS(=O)(=O)c1cc(Cl)ccc1[N+](=O)[O-]`, for which the melting point was 157 to 159 °C.

For the molecule `Cc1[nH]c2ccc(C#N)cc2c1C`, the melting point fell in the range of 145 to 147 °C.

For the molecule `O=C1CC(=O)Nc2ccccc2N1`, the melting point lay within 383 to 385 °C.

Turning to `CC(=O)Nc1ccc(S(=O)(=O)N2CCC(=NO)CC2)cc1`, the melting point is 200 to 202 °C.

`Nc1nnc(-c2c(F)cccc2Cl)o1` gave a melting point of 152 to 154 °C.

As for `Cc1ccc(C(=O)Nc2cccc(C(F)(F)F)c2)cc1N`, the melting point lay within 109 to 111 °C.

`NS(=O)(=O)c1ccc2[nH]c(=O)c(=O)[nH]c2c1`: the melting point was 372 to 374 °C.

For the molecule `O=S(=O)(Cl)c1ccc(OCC(F)F)c2ccccc12`, the melting point fell in the range of 115 to 117 °C.

As to `Cc1ccc2[nH]cc(CCC(=O)O)c2c1`, the melting point was in the range of 126 to 128 °C.

As to `CCS(=O)(=O)c1ccc(C(=O)O)cc1`, the melting point is 216 to 218 °C.

The molecule `Nc1cc2c(cc1NC(=O)c1cccs1)OCCO2` showed a melting point of 178 to 180 °C.

As to `Cc1ccc(S)nc1`, the melting point is 199 to 201 °C.

Regarding `O=C(O)c1cc(Cl)n[nH]c1=O`, the melting point lay within 212 to 214 °C.

Molecule `NNc1ccccc1S(=O)(=O)N1CCOCC1` returned a melting point of 141 to 143 °C.

What is called melting point is the temperature of the solid-liquid transition.
